The target in data set [1] is T1, FAK (focal adhesion kinase) (Homo sapiens, UniProt Q05397).
T1 construct: endogenous in cells; host or cells: Calu-6 or HT-29
Kind of data set: Inhibition of FAK (ELISA assay), FAK phosphorylation in cells. The class given is cell-based. The note with it: human cells with FAK amplification. How it is done:
Activated FAK promotes the invasive growth of tumour cells and inhibits anoikis.
The amount of phosphorylated FAK is determined by a specific capture ELISA or an analogous LUMINEX assay. FAK from cell lysates is bound to a 96-well ELISA plate or LUMINEX beads by means of a specific antibody (“capturing”), and the tyrosine phosphorylation is detected using a biotin-labelled anti-phosphotyrosine antibody and a streptavidin-peroxidase conjugate by a chemiluminescence method or by means of a fluorescence-labelled anti-phosphotyrosine antibody.
For determination of the activity of kinase inhibitors, cells are pretreated with increasing concentrations of these compounds for 45 min, and the FAK phosphorylation is then determined. As internal control, a concentration series of a reference inhibitor is measured.
Background: ELISA stands for enzyme-linked immunosorbent assay.

The target in a further data set is T2, IGF1 receptor (IGF1R) (Homo sapiens, UniProt P08069).
T2 construct: endogenous in cells; host or cells: MCF-7 or Calu-6
Kind of data set: Inhibition of IGF1R (ELISA assay), IGF1-stimulated autophosphorylation in cells. The class given is cell-based. The note with it: human tumour cells stimulated with IGF1, read-out: IC50 IGF (ELISA). The procedure: The stimulation induces an autophosphorylation of tyrosine residues in the cytoplasmatic IGF1R domain, which triggers signal transduction cascades, which result in inhibition of apoptosis and proliferation of the cells.
The amount of phosphorylated IGF1R is determined by a receptor-specific capture ELISA or an analogous LUMINEX assay. The IGF1R from cell lysates is bound to a 96-well ELISA plate or LUMINEX beads by means of a specific antibody (“capturing”), and the tyrosine phosphorylation is detected using a biotin-labelled anti-phosphotyrosine antibody and a streptavidin-peroxidase conjugate by a chemiluminescence method or by means of a fluorescence-labelled anti-phosphotyrosine antibody.
For determination of the activity of kinase inhibitors, cells are pretreated with increasing concentrations of these compounds for 45 min and subsequently stimulated using IGF1 for 5 min. As internal control, the biological activity of the ligand IGF1 is checked, and a concentration series of an IGF1R reference inhibitor is measured.

For the next data set, the target named is T3, TGFβR1 (Homo sapiens, UniProt P36897).
T3 sequence (P36897 34-503): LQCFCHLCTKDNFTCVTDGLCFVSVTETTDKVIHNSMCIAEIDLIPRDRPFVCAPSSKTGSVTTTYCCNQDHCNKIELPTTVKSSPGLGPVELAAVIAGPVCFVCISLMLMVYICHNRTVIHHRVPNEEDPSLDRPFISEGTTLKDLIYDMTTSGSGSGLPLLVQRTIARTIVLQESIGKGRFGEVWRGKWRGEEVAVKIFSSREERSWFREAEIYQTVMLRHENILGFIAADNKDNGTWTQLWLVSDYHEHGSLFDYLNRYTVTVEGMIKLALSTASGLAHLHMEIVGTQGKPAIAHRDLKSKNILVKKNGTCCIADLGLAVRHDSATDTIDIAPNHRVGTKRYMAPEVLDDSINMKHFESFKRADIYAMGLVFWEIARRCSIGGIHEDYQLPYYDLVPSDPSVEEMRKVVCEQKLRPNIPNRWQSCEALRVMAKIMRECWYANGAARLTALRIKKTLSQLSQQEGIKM
Kind of data set: Inhibition of TGFβR1 (flashplate assay). The class given is biochemical. To be noted: flashplate method. The procedure: The test is carried out as described in Example B1b for IGF1R. A biotinylated is added to the TGFβR1 kinase.
The kinase assay is carried out as a 384-well flashplate assay.
The components of the kinase reaction are pipetted into the assay plate. The TGFβR1 kinase is incubated for 45 min with radioactively labelled ^33P-ATP in the presence and absence of test substances together with biotinylated substrate in a total volume of 35 μl. The reaction is terminated using 25 μl of 200 mM EDTA solution, removed by suction after 30 min at room temperature, and the wells are washed with three times with 100 μl of 0.9% NaCl solution each time. The radioactivity is measured using a Topcount scintillation counter (PerkinElmer, USA). IC50 values are calculated using the RS1 computer program.

The target in another data set is PDGFRβ (Homo sapiens, UniProt P09619). In words: Inhibition of PDGFRβ (flashplate assay). The class given is biochemical. The note with it: flashplate method. The procedure:
(§1) The test plates used are 96-well flashplate microtitre plates from Perkin Elmer (USA). The components of the kinase reaction are pipetted into the assay plate. The PDGFRβ kinase is incubated for 3 hr. with radioactively labelled ^33P-ATP in the presence and absence of test substances in a total volume of 100 μl at room temperature (here autophosphorylation of the kinase). The reaction is terminated using 150 μl of a 60 mM EDTA solution. After incubation for a further 30 min at room temperature, the supernatants are removed by suction, and the wells are washed three times with 200 μl of 0.9% NaCl solution each time. The radioactivity is measured using a Topcount scintillation counter (PerkinElmer, USA). IC50 values are calculated using the RS1 computer program.

The target in a further data set is VEGF-2 (Homo sapiens, UniProt P35968). In words: Inhibition of VEGF-2 (flashplate assay). The format is biochemical. To be noted: flashplate method. How it is done: as §1, with “384-well” for “96-well”, “VEGF-2” for “PDGFRβ”, “together with biotinylated poly(Glu, Tyr)4:1.” for “(here autophosphorylation of the kinase).”, “25” for “150”, “200” for “60”, “100” for “200”

The next data set has as its target TIE2 (Homo sapiens, UniProt Q02763). Kind of data set: Inhibition of TIE2 (flashplate assay). The format is biochemical. The note with it: flashplate method. How it is done: B4: inhibition of T1E2 (Flashplate Assay)
as §1, with “384-well” for “96-well”, “TIE2” for “PDGFRβ”, “together with biotinylated poly(Glu, Tyr)4:1.” for “(here autophosphorylation of the kinase).”, “25” for “150”, “200” for “60”, “100” for “200”

Counter-ions that a name gives are not always drawn.

PDGFRβ, sequence (P09619 33-1106, species assumed): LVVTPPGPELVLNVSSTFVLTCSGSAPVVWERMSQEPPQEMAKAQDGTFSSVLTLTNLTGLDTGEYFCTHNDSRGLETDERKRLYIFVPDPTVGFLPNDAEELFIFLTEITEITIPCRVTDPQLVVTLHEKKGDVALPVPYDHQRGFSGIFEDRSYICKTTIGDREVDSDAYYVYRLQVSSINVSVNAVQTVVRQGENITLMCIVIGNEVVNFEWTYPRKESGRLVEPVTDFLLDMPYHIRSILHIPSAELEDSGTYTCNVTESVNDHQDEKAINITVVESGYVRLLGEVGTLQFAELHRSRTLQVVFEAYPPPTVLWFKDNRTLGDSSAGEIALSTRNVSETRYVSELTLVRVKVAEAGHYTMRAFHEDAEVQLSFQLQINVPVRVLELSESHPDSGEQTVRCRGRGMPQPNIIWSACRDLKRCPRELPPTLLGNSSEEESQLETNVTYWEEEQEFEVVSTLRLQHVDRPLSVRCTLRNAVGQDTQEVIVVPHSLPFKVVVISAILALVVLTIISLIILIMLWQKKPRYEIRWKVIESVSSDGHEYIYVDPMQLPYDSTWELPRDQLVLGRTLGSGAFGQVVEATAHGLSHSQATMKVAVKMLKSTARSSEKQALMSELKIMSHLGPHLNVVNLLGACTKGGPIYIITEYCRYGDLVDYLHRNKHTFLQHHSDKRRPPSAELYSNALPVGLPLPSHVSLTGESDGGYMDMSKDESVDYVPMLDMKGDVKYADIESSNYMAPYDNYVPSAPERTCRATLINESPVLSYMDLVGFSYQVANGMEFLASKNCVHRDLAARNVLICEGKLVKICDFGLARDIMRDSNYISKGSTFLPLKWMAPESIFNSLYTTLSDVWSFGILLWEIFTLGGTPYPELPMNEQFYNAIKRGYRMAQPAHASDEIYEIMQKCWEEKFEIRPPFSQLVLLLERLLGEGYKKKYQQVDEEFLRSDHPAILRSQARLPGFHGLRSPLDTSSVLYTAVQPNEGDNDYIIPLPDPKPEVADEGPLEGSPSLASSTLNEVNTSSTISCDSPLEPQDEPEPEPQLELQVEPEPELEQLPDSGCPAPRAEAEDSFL
T2 sequence (P08069 31-1367): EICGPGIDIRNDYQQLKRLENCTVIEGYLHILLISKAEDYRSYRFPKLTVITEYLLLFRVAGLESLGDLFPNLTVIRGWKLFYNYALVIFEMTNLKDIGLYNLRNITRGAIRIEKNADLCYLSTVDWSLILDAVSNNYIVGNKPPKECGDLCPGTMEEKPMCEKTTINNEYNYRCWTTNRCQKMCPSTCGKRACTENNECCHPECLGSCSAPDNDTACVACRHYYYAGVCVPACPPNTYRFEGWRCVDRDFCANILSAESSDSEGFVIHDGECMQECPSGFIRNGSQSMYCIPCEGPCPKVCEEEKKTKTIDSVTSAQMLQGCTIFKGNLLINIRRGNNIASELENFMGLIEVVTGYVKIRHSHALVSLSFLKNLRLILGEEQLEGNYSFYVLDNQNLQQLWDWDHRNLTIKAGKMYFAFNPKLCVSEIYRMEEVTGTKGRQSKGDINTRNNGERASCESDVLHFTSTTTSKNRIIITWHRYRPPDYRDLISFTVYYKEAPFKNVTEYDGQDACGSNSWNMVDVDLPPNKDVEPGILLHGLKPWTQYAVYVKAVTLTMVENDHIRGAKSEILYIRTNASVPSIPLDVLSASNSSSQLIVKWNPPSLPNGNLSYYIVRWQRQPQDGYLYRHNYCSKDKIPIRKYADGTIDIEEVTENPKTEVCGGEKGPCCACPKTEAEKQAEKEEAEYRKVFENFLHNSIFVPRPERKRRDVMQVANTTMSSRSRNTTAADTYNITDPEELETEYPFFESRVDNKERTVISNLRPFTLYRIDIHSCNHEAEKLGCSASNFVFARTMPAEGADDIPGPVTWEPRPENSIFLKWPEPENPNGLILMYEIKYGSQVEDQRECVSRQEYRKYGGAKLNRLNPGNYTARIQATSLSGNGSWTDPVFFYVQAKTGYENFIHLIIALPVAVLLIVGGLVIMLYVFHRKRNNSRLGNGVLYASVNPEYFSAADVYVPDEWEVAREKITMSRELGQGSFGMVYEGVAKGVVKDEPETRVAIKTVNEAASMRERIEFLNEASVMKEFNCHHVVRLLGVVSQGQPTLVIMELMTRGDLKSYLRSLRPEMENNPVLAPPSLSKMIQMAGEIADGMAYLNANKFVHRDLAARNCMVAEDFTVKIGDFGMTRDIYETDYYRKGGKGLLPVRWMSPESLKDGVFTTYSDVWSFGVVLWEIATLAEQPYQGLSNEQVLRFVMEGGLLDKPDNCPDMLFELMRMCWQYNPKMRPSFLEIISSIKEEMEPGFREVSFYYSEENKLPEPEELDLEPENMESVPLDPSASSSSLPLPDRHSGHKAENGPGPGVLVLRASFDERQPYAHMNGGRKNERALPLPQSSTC
T1 sequence (Q05397 whole entry): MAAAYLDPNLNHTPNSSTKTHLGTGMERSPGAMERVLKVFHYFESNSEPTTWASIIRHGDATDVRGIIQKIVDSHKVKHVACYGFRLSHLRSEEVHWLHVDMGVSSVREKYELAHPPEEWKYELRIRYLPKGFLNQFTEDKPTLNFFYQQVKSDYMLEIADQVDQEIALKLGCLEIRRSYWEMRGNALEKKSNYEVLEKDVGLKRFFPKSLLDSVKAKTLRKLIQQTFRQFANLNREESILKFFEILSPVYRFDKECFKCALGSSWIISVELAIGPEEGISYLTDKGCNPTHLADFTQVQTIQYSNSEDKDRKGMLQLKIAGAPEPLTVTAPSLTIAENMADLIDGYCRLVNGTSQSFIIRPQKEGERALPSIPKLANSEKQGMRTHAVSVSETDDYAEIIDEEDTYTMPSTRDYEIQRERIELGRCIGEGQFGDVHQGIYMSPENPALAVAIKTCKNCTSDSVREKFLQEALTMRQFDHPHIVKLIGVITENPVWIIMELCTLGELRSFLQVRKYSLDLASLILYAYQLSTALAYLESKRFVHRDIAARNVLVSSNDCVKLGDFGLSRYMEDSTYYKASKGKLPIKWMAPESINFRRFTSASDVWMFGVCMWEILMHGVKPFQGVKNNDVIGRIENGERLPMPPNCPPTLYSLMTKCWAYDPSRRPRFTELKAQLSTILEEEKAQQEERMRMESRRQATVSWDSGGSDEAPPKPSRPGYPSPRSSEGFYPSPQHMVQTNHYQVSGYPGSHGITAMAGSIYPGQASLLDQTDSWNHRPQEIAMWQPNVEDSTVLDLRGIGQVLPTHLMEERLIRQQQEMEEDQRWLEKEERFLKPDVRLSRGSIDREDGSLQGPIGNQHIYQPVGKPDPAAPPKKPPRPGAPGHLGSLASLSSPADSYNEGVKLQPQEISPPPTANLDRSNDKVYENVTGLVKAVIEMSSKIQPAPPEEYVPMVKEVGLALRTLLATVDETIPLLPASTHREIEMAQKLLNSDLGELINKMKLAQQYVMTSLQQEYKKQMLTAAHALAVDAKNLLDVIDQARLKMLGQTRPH
TIE2, sequence (Q02763 23-1124, species assumed): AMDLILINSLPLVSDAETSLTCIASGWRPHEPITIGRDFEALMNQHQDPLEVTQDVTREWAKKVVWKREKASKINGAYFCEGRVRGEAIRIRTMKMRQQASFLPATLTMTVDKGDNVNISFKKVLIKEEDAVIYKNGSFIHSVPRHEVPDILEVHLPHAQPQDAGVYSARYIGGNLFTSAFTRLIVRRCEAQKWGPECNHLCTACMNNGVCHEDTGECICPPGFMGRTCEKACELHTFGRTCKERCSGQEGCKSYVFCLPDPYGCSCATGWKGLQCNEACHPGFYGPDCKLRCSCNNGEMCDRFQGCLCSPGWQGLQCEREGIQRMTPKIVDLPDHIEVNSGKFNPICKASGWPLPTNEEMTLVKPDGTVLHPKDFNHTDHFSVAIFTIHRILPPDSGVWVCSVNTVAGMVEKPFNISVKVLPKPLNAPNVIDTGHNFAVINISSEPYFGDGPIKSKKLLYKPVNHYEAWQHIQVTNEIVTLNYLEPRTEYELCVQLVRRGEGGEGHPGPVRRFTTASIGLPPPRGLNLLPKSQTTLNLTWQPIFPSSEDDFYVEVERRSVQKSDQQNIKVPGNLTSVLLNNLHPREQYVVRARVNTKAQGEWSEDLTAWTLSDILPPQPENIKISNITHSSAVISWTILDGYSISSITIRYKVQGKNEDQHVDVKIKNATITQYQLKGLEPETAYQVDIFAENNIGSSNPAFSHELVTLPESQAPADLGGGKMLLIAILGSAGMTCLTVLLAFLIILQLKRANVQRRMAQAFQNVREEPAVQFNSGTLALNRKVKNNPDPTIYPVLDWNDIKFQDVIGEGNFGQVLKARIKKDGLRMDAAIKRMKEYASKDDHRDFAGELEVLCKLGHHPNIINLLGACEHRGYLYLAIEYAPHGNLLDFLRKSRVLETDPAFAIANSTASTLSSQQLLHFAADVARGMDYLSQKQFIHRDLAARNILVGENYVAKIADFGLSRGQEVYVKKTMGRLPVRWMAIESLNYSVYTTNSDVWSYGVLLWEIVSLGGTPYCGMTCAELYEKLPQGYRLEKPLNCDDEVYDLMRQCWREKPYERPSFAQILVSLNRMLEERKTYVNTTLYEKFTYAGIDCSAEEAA

For `NCC1CC(n2cc(-c3cc4ccccc4o3)c3c(N)ncnc32)C1` (stereo not shown) (as salt: TFA) [Compound 37], the melting point (in general, the temperature, or range, at which the solid turns liquid) lay within 202.5 to 204.5 °C.
Turning to `NCC1CC(n2cc(-c3cnc4ccccc4c3)c3c(N)ncnc32)C1` (stereo not shown) [Compound 69], the IC50 (in general, the concentration needed to halve the response being measured) in data set [1] was 8 µM; at IGF1 receptor (IGF1R), 25 µM; on TGFβR1, 0.039 µM.
As for `NCC1CC(n2cc(-c3cccs3)c3c(N)ncnc32)C1` (stereo not shown) (as salt: TFA) [Compound 41], the melting point is 206 to 207.5 °C.
Turning to `N#Cc1ccc(-c2cn(C3CC(CN)C3)c3ncnc(N)c23)cc1N` (stereo not shown) [Compound 58], the figures for the IC50 against PDGFRβ, at VEGF-2 and on TGFβR1 were 0.43 µM, 0.61 µM and 1.1 µM, respectively.
For the molecule `NCC1CC(n2cc(-c3cccnc3)c3c(N)ncnc32)C1` (stereo not shown) [Compound 44], the IC50 at IGF1 receptor (IGF1R) came out at 13 µM; against TGFβR1 it was 0.95 µM.
Regarding `NCC1CC(n2cc(-c3ccco3)c3c(N)ncnc32)C1` (stereo not shown) (as salt: TFA) [Compound 38], the melting point lay in the range of 207.5 to 209 °C.
`NCC1CC(n2cc(-c3ccc4c(c3)n(Cc3ccccc3)c(=O)n4Cc3ccccc3)c3c(N)ncnc32)C1` (stereo not shown) [Compound 33]: the melting point was in the range of 72.5 to 74 °C. In data set [1], this molecule had an IC50 of 27 µM. For the same molecule, at IGF1 receptor (IGF1R), the IC50 worked out at 20 µM. Moreover, the IC50 at PDGFRβ came out at 6.85 µM. The IC50 against TIE2 was 0.37 µM.
As for `Nc1ncnc2c1c(-c1ccc3c(c1)OCCO3)cn2C1CC(CN2CCCC2)C1` (stereo not shown) [Compound 54], in data set [1], 28 µM corresponded to half-maximal inhibition (IC50).
On to `N#Cc1ccc(-c2cn(C3CC(CN)C3)c3ncnc(N)c23)cc1F` (stereo not shown) [Compound 59], for which the IC50 in data set [1] is 4.1 µM; against PDGFRβ it was 0.62 µM; at TGFβR1, 8.3 µM.
Turning to `NCC1CC(n2cc(-c3ccncc3)c3c(N)ncnc32)C1` (stereo not shown) [Compound 43], the IC50 was 27 µM at IGF1 receptor (IGF1R) and 0.15 µM at TGFβR1.
Consider `NCC1CC(n2cc(-c3ccncc3)c3c(N)ncnc32)C1` (stereo not shown) (as salt: TFA) [Compound 43], for which the melting point is > 195 °C (dec.).
As to `NCC1CC(n2cc(-c3cccc4occc34)c3c(N)ncnc32)C1` (stereo not shown) [Compound 65], the IC50 turned out to be 0.42 µM in data set [1]; 0.94 µM on PDGFRβ; 1.32 µM against VEGF-2; 0.045 µM against TGFβR1; 2.9 µM at TIE2.
In turn, `C[Si](C)(C)COc1cccc(-c2cn(C3CC(CN)C3)c3ncnc(N)c23)c1` (stereo not shown) (as salt: TFA) [Compound 9] showed a melting point of 83 to 84 °C.
As for `NCC1CC(n2cc(-c3cccc(C(F)(F)F)c3)c3c(N)ncnc32)C1` (stereo not shown) [Compound 17], the IC50 is 25 µM in data set [1] and 2.7 µM at TGFβR1.
On to `NCC1CC(n2cc(-c3cccc(C(N)=O)c3)c3c(N)ncnc32)C1` (stereo not shown) [Compound 60], for which, at TGFβR1, the IC50 stood at 0.53 µM.
Consider `NCC1CC(n2cc(-c3cccc(N(CCCCO)Cc4ccccc4)c3)c3c(N)ncnc32)C1` (stereo not shown) [Compound 61], for which, at TIE2, the IC50 was 3.9 µM.
With `N#Cc1cccc(-c2cn(C3CC(CN)C3)c3ncnc(N)c23)c1` (stereo not shown) (as salt: TFA) [Compound 57], the melting point was 186.5 to 189 °C.
On the same count and under the same terms, next, `NCC1CC(n2cc(I)c3c(N)ncnc32)C1` (stereo not shown) (as salt: HCl) [Compound 52]: 241 to 242.5 °C.
As for `N#Cc1cccc(-c2cn(C3CC(CN)C3)c3ncnc(N)c23)c1` (stereo not shown) [Compound 57], the IC50 in data set [1] was found to be 25 µM; against TGFβR1 it was 6.1 µM.
Molecule `CS(=O)(=O)Nc1cccc(-c2cn(C3CC(CN)C3)c3ncnc(N)c23)c1` (stereo not shown) [Compound 13] yielded a melting point of 82 to 84 °C. In addition, the IC50 in data set [1] turned out to be 28 µM. For the same molecule, on PDGFRβ, the IC50 worked out at 5.8 µM. Further, the IC50 on VEGF-2 was found to be 6.5 µM.
For `CC(=O)Nc1cccc(-c2cn(C3CC(CN)C3)c3ncnc(N)c23)c1` (stereo not shown) [Compound 21], the IC50 in data set [1] worked out at 17 µM; against TGFβR1, 6.5 µM.
In turn, `C[Si](C)(COc1cccc(-c2cn(C3CC(CN)C3)c3ncnc(N)c23)c1)c1ccccc1` (stereo not shown) (as salt: TFA) [Compound 8] showed a melting point of 172 to 174.5 °C.
`CC(C)c1cccc(-c2cn(C3CC(CN)C3)c3ncnc(N)c23)c1` (stereo not shown) [Compound 16] registered a melting point of 93 to 94.5 °C. The same molecule came in with an IC50 in data set [1] of 28.5 µM. In addition, the IC50 on IGF1 receptor (IGF1R) stood at 22 µM. Moreover, the IC50 against TGFβR1 came to 1.5 µM.
As to `NCC1CC(n2cc(C(Cl)=CCOCc3ccccc3)c3c(N)ncnc32)C1` (stereo not shown) [Compound 71], the IC50 was determined as 21 µM on IGF1 receptor (IGF1R) and 5.5 µM against TGFβR1.
For the molecule `CN(Cc1ccccc1)c1cccc(-c2cn(C3CC(CN)C3)c3ncnc(N)c23)c1` (stereo not shown) [Compound 26], the melting point fell in the range of 197 to 200 °C. For the same molecule, the IC50 at IGF1 receptor (IGF1R) came out at 11 µM. The same molecule came in with an IC50 on VEGF-2 of 2.7 µM. Moreover, the IC50 at TGFβR1 came out at 1.1 µM.
With `NCC1CC(n2cc(-c3cccc(OC(F)(F)F)c3)c3c(N)ncnc32)C1` (stereo not shown) [Compound 18], the melting point was in the range of 88 to 90 °C. It took 17.5 µM to reach half-maximal inhibition in data set [1] (IC50). Also, the IC50 on IGF1 receptor (IGF1R) is 22 µM. Further, half-maximal inhibition against TGFβR1 (IC50) was put at 1 µM.
Take `NCC1CC(n2cc(-c3ccc4occc4c3)c3c(N)ncnc32)C1` (stereo not shown) [Compound 63]: the melting point is 156 to 159 °C. Further, the IC50 in data set [1] is 0.63 µM. On PDGFRβ, this molecule displayed an IC50 of 0.31 µM. On VEGF-2, this molecule showed an IC50 of 0.29 µM. 0.055 µM corresponded to half-maximal inhibition against TGFβR1 (IC50). Besides, 1.8 µM corresponded to half-maximal inhibition against TIE2 (IC50).
The molecule `NCC1CC(n2cc(-c3cccc([N+](=O)[O-])c3)c3c(N)ncnc32)C1` (stereo not shown) [Compound 20] registered a melting point of 53 to 55 °C. The molecule also yielded an IC50 in data set [1] of 4 µM. Moreover, the IC50 against TGFβR1 is 0.7 µM.

The values above are taken from US20100160356A1, “NOVEL CYCLOBUTYL COMPOUNDS AS KINASE INHIBITORS” (priority 2006, published 2010).
